Test results published in US20230348369A1 (Cytokinetics, Inc., priority 2020, published 2023).
Read-outs that look alike come from different tables or passages of the source.

Biological target: human NAMPT (Homo sapiens, UniProt P43490)
Assay: Human recombinant enzyme assay (NMN fluorescence biochemical assay, activation of NAMPT)
Procedure, shortened: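 Activation of recombinant human NAMPT (6 nM) with 2.5 mM ATP, 20 μM PRPP and 150 μM nicotinamide in 50 mM HEPES pH 7.2, 1 mM DTT, 1 mM CHAPS, 50 mM NaCl, 100 mM MgCl2; 60 min, ambient temperature. NMN formed was derivatized with acetophenone/KOH/formic acid, fluorescence read at 355/460 nm after 40 min.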

[1] = Table A, human recombinant NAMPT, NMN formation, 60 min
[2] = Table A, human recombinant NAMPT, NMN formation, 60 min, read-out: EC50 Human

human NAMPT, sequence (P43490 whole entry): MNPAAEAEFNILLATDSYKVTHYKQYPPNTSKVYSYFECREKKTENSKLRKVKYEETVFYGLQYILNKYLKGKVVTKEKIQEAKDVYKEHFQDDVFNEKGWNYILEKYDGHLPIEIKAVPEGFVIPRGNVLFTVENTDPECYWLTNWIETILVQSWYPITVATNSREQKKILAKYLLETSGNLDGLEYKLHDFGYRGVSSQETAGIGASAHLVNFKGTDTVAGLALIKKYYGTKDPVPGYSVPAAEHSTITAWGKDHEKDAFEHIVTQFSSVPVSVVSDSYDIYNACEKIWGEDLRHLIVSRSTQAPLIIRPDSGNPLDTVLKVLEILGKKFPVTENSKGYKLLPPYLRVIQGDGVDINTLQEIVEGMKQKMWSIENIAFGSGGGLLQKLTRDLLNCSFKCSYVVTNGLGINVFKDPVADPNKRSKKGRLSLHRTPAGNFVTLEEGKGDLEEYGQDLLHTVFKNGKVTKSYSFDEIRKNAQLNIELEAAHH

Row | Structure (SMILES) | AC1.4 Human [1] [µM] | EC50 [2] [µM] | EC50 [µM]
1 | CN1CC(C(=O)N2CCC(CCCCNC(=O)NCc3ccc(Cl)cc3)CC2)CC1=O (stereo not shown) [Compound 304, 1-(4-chlorobenzyl)-3-(4-(1-(1-methyl-5-oxopyrrolidine-3-carbonyl)piperidin-4-yl)butyl)urea] | 1.7 | 10.6 | 
2 | O=C(NCCCCC1CCN(C(=O)c2ncco2)CC1)NCc1ccc(Cl)cc1 [Compound 305, 1-(4-chlorobenzyl)-3-(4-(1-(oxazole-2-carbonyl)piperidin-4-yl)butyl)urea] | 0.2 | 0.4 | 
3 | O=C(NCCCCC1CCN(C(=O)c2ccno2)CC1)NCc1ccc(Cl)cc1 [Compound 306, 1-(4-chlorobenzyl)-3-(4-(1-(isoxazole-5-carbonyl)piperidin-4-yl)butyl)urea] | 0.4 | 1.2 | 
4 | O=C(NCCCCC1CCN(c2ccccn2)CC1)NCc1ccc(Cl)cc1 [Compound 307, 1-(4-chlorobenzyl)-3-(4-(1-(pyridin-2-yl)piperidin-4-yl)butyl)urea] | 1.9 | 7.3 | 
5 | O=C(NCCCCC1CCN(c2ccncc2)CC1)NCc1ccc(Cl)cc1 [Compound 308, 1-(4-chlorobenzyl)-3-(4-(1-(pyridin-4-yl)piperidin-4-yl)butyl)urea] | 2.2 | 5 | 
6 | Cc1ccc(C(=O)N2CCC(CCCCNC(=O)NCc3ccc(Cl)cc3)CC2)cn1 [Compound 309, 1-(4-chlorobenzyl)-3-(4-(1-(6-methylnicotinoyl)piperidin-4-yl)butyl)urea] | 2.1 | 6.5 | 
7 | Cc1ncccc1CC(=O)N1CCC(CCCCNC(=O)NCc2ccc(Cl)cc2)CC1 [Compound 310, 1-(4-chlorobenzyl)-3-(4-(1-(2-(2-methylpyridin-3-yl)acetyl)piperidin-4-yl)butyl)urea] | 0.8 | 4.1 | 
8 | Cc1ccc(CC(=O)N2CCC(CCCCNC(=O)NCc3ccc(Cl)cc3)CC2)cn1 [Compound 311, 1-(4-chlorobenzyl)-3-(4-(1-(2-(6-methylpyridin-3-yl)acetyl)piperidin-4-yl)butyl)urea] | 1.2 | 3.4 | 
9 | Cn1cc(C(=O)N2CCC(CCCCNC(=O)NCc3ccc(Cl)cc3)CC2)nn1 [Compound 312, 1-(4-chlorobenzyl)-3-(4-(1-(1-methyl-1H-1,2,3-triazole-4-carbonyl)piperidin-4-yl)butyl)urea] | 1.5 | 5.4 | 
10 | Cc1ccccc1CC(=O)N1CCC(CCCCNC(=O)NCc2ccc(Cl)cc2)CC1 [Compound 313, 1-(4-chlorobenzyl)-3-(4-(1-(2-(o-tolyl)acetyl)piperidin-4-yl)butyl)urea] | 0.7 | 1.4 | 
11 | O=C(NCCCCC1CCN(C(=O)c2ccccc2C(F)F)CC1)NCc1ccc(Cl)cc1 [Compound 314, 1-(4-chlorobenzyl)-3-(4-(1-(2-(difluoromethyl)benzoyl)piperidin-4-yl)butyl)urea] | 0.5 | 0.7 | 
12 | O=C(NCCCCC1CCN(C(=O)c2ccccc2-c2nnn[nH]2)CC1)NCc1ccc(Cl)cc1 [Compound 315, 1-(4-(1-(2-(1H-tetrazol-5-yl)benzoyl)piperidin-4-yl)butyl)-3-(4-chlorobenzyl)urea] | 0.9 | 2 | 
13 | O=C(NCCCCC1CCN(C(=O)Cc2cn[nH]c2)CC1)NCc1ccc(Cl)cc1 [Compound 316, 1-(4-(1-(2-(1H-pyrazol-4-yl)acetyl)piperidin-4-yl)butyl)-3-(4-chlorobenzyl)urea] | 1.4 | 6.4 | 
14 | O=C(NCCCCN1CCN(C(=O)c2ccccc2)CC1)NCc1ccc(Cl)cc1 [Compound 317, 1-(4-(4-benzoylpiperazin-1-yl)butyl)-3-(4-chlorobenzyl)urea] | 4.2 | 25.1 | 
15 | O=C(NCCCCC1CCN(c2nn[nH]n2)CC1)NCc1ccc(Cl)cc1 [Compound 318, 1-(4-(1-(2H-tetrazol-5-yl)piperidin-4-yl)butyl)-3-(4-chlorobenzyl)urea] | 3.9 | 8.8 | 
16 | Cc1cccc(C)c1C(=O)N1CCC(CCCCNC(=O)NCc2ccc(Cl)cc2)CC1 [Compound 319, 1-(4-chlorobenzyl)-3-(4-(1-(2,6-dimethylbenzoyl)piperidin-4-yl)butyl)urea] | 0.8 | 0.8 | 
17 | Cc1ccccc1C(=O)N1CCC(CCCCNC(=O)NCc2cnco2)CC1 [Compound 320, 1-(4-(1-(2-methylbenzoyl)piperidin-4-yl)butyl)-3-(oxazol-5-ylmethyl)urea] | 0.1 | 1.4 | 
18 | Cc1ccccc1C(=O)N1CCC(CCCCNC(=O)NCc2ccc(C(N)=O)cc2)CC1 [Compound 321, 4-((3-(4-(1-(2-methylbenzoyl)piperidin-4-yl)butyl)ureido)methyl)benzamide] | 0.1 | 2.1 | 
19 | Cc1ccccc1C(=O)N1CCC(CCCCNC(=O)NCc2ccncc2)CC1 [Compound 323, 1-(4-(1-(2-methylbenzoyl)piperidin-4-yl)butyl)-3-(pyridin-4-ylmethyl)urea] | 0.2 | 1.6 | 

Row | Structure (SMILES) | AC1.4 Human [1] [µM] | EC50 [2] [µM] | EC50 [µM]
20 | [2H]C([2H])(NC(=O)NCCCCC1CCN(C(=O)c2ccccc2)CC1)c1cnco1 [Compound 324, 1-(4-(1-benzoylpiperidin-4-yl)butyl)-3-(oxazol-5-ylmethyl-d2)urea] | 0.2 | 1.9 | 
21 | COc1ccc(CNC(=O)NC2CC3(C2)CC(c2nnc(-c4ccccc4)o2)C3)cc1 (stereo not shown) [Compound 325, 1-(4-Methoxybenzyl)-3-(6-(5-phenyl-1,3,4-oxadiazol-2-yl)spiro[3.3]heptan-2-yl)urea] | 2.4 | 30.6 | 
22 | COc1ccc(CNC(=O)NC2CC3(C2)CC(c2nc(-c4ccccc4)co2)C3)cc1 (stereo not shown) [Compound 326, 1-(4-methoxybenzyl)-3-(6-(4-phenyloxazol-2-yl)spiro[3.3]heptan-2-yl)urea] | 4.5 |  | 
23 | COc1ccc(CNC(=O)NC2CC3(C2)CC(c2nc4ccccc4o2)C3)cc1 (stereo not shown) [Compound 327, 1-(6-(benzo[d]oxazol-2-yl)spiro[3.3]heptan-2-yl)-3-(4-methoxybenzyl)urea] | 4.1 |  | 17.4
24 | O=C(NCc1ccc(Cl)cc1)NC1CC2(C1)CC(C(O)c1ccccc1)C2 (stereo not shown) [Compound 328, 1-(4-chlorobenzyl)-3-(6-(hydroxy(phenyl)methyl)spiro[3.3]heptan-2-yl)urea] | 1.2 | 4.3 | 
25 | O=C(NCc1ccc(Cl)cc1)NC1CC2(CC(Cc3cnccn3)C2)C1 (stereo not shown) [Compound 331, 1-(4-chlorobenzyl)-3-(6-(pyrazin-2-ylmethyl)spiro[3.3]heptan-2-yl)urea] | 2.2 | 1.3 | 
26 | N#Cc1cnn(CC2CC3(C2)CC(NC(=O)NCc2ccc(Cl)cc2)C3)c1 (stereo not shown) [Compound 333, 1-(4-chlorobenzyl)-3-(6-((4-cyano-1H-pyrazol-1-yl)methyl)spiro[3.3]heptan-2-yl)urea] | 1.8 |  | 4.4
27 | COc1ccc(CNC(=O)NC2CC3(CC(Cc4ccc(C)cc4)C3)C2)cc1 (stereo not shown) [Compound 334, 1-(4-methoxybenzyl)-3-(6-(4-methylbenzyl)spiro[3.3]heptan-2-yl)urea] | 2.3 | 2.7 | 
28 | COc1ccc(CNC(=O)NC2CC3(CC(Cc4cccc(C)c4)C3)C2)cc1 (stereo not shown) [Compound 335, 1-(4-Methoxybenzyl)-3-(6-(3-methylbenzyl)spiro[3.3]heptan-2-yl)urea] | 1.1 | 2.2 | 
29 | COc1ccc(CNC(=O)NC2CC3(CC(Cc4ccccc4C)C3)C2)cc1 (stereo not shown) [Compound 336, 1-(4-methoxybenzyl)-3-(6-(2-methylbenzyl)spiro[3.3]heptan-2-yl)urea] | 0.7 | 2.1 | 
30 | COc1ccc(CNC(=O)NC2CC3(CC(Cc4ccc(C)nc4)C3)C2)cc1 (stereo not shown) [Compound 337, 1-(4-methoxybenzyl)-3-(6-((6-methylpyridin-3-yl)methyl)spiro[3.3]heptan-2-yl)urea] | 1.0 | 26.1 | 
31 | Cc1ccc(C(C)(O)C2CC3(CC(NC(=O)NCc4ccc(Cl)cc4)C3)C2)cn1 (stereo not shown) [Compound 338, 1-(4-chlorobenzyl)-3-(6-(1-hydroxy-1-(6-methylpyridin-3-yl)ethyl)spiro[3.3]heptan-2-yl)urea] | 6.4 | 10.3 | 
32 | O=C(NCc1ccc(Cl)cc1)NC1CC2(CC(Cn3cncn3)C2)C1 (stereo not shown) [Compound 339, 1-(6-((1H-1,2,4-triazol-1-yl)methyl)spiro[3.3]heptan-2-yl)-3-(4-chlorobenzyl)urea] | 4.6 | 6.5 | 
33 | O=C(NCc1ccc(Cl)cc1)NC1CC2(CC(Cc3ncccn3)C2)C1 (stereo not shown) [Compound 340, 1-(4-chlorobenzyl)-3-(6-(pyrimidin-2-ylmethyl)spiro[3.3]heptan-2-yl)urea] | 3.7 |  | 5.6
34 | O=C(NCc1ccc(Cl)cc1)NC1CC2(C1)CC(Oc1ccncc1)C2 (stereo not shown) [Compound 341, 1-(4-chlorobenzyl)-3-(6-(pyridin-4-yloxy)spiro[3.3]heptan-2-yl)urea] | 3.9 | 2 | 
35 | CS(=O)(=O)C1CC2(CC(NC(=O)NCc3ccc(Cl)cc3)C2)C1 (stereo not shown) [Compound 342, 1-(4-chlorobenzyl)-3-(6-(methylsulfonyl)spiro[3.3]heptan-2-yl)urea] | 33.1 | 56.1 | 
36 | O=C(NCc1ccc(Cl)cc1)NC1CC2(C1)CC(Oc1cccnc1)C2 (stereo not shown) [Compound 343, 1-(4-chlorobenzyl)-3-(6-(pyridin-3-yloxy)spiro[3.3]heptan-2-yl)urea] | 3.0 |  | 5.6
37 | COc1ccc(CNC(=O)NC2CC3(C2)CC(Oc2cccnc2)C3)cc1 (stereo not shown) [Compound 344, 1-(4-methoxybenzyl)-3-(6-(pyridin-3-yloxy)spiro[3.3]heptan-2-yl)urea] | 3.1 | 34.9 | 
